The structures appear in SMILES notation.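 These data come from cells grown in 96-well plates and exposed to compound for 48 hours at five concentrations. TGI: concentration producing complete growth inhibition.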 Some results are limits rather than exact numbers.

The text below walks through data of PubChem BioAssay (NCI).

Test systems include SK-MEL-5 melanoma; SR leukemia; UACC-257 melanoma; EKVX NSCLC; ACHN renal; KM12 colon; HCT-116 colon; NCI-H460 lung; MDA-N; U251 CNS; HS 578T breast; UO-31 renal.
What all share (assay): DTP human tumour cell line panel, 48 h

On to `NC1CC2C3CCC2C1C3=O` (configuration not stated), for which the TGI with SK-MEL-5 melanoma, in the experiment with SR leukemia, in the experiment on UACC-257 melanoma, in the experiment on EKVX NSCLC, in the experiment with ACHN renal and with KM12 colon was more than 100 µM throughout. Also, the TGI in the experiment on HCT-116 colon, with NCI-H460 lung, in the experiment with MDA-N, in the experiment on U251 CNS, in the experiment on HS 578T breast and in the experiment with UO-31 renal was more than 100 µM in each case.

In the case of `O=c1c2cc(Br)ccc2oc2nc3n(c(=O)c12)CCCS3`, the concentration for total growth inhibition (TGI) in the experiment on SK-MEL-5 melanoma, in the experiment on SR leukemia, in the experiment on UACC-257 melanoma, in the experiment on EKVX NSCLC, in the experiment on ACHN renal and in the experiment with KM12 colon was more than 100 µM throughout. Further, the TGI in the experiment with HCT-116 colon, with NCI-H460 lung, in the experiment on MDA-N, in the experiment on U251 CNS, in the experiment on HS 578T breast and with UO-31 renal was more than 100 µM in each case.

On to `COc1ccc(-c2cc(-c3ccc(Nc4ccnc5cc(C(F)(F)F)ccc45)cc3)[nH]c(=O)c2C#N)c2ccccc12`, for which the TGI – broadly, the concentration at which net growth stops – was more than 100 µM in the experiment on SK-MEL-5 melanoma; more than 48.9 µM in the experiment on SR leukemia; more than 100 µM in the experiment with UACC-257 melanoma; more than 100 µM in the experiment on EKVX NSCLC; more than 81.5 µM with ACHN renal; more than 100 µM in the experiment on KM12 colon. For the same compound, the TGI in the experiment on HCT-116 colon was more than 100 µM; with NCI-H460 lung, more than 100 µM; in the experiment with MDA-N, more than 52.9 µM; with U251 CNS it was more than 36.4 µM; in the experiment with HS 578T breast, more than 100 µM; in the experiment with UO-31 renal, more than 65.9 µM.

For the compound `C#CC(O)/C=C/CCCCCCC#CC/C=C\CC#CCCCCCC/C=C/C(O)C#C` (configuration not stated), the TGI in the experiment on SK-MEL-5 melanoma came to 3.14 µM; in the experiment on SR leukemia, 18 µM; in the experiment on UACC-257 melanoma, 8.57 µM; in the experiment with EKVX NSCLC, 5.23 µM; with ACHN renal it was 13.7 µM; in the experiment on KM12 colon, 5.29 µM. In addition, the TGI in the experiment with HCT-116 colon was determined as 4.02 µM; in the experiment with NCI-H460 lung it was 16.3 µM; in the experiment with MDA-N it was 7.52 µM; with U251 CNS, 26 µM; in the experiment on HS 578T breast it was 15 µM; with UO-31 renal, 0.915 µM.

Take `CCOC(OCC)C(CC)[Se]c1ccccc1[N+](=O)[O-]` (configuration not stated): the TGI with SK-MEL-5 melanoma was 30.9 µM; in the experiment with SR leukemia, more than 40.1 µM; with UACC-257 melanoma it was more than 94.6 µM; in the experiment with EKVX NSCLC, more than 100 µM; in the experiment on ACHN renal it was more than 100 µM; in the experiment on KM12 colon, 71.4 µM. Further, the TGI in the experiment with HCT-116 colon was 30.2 µM; in the experiment on NCI-H460 lung it was 18.6 µM; in the experiment on MDA-N, more than 100 µM; in the experiment with U251 CNS, 15.4 µM; with HS 578T breast, more than 100 µM; in the experiment on UO-31 renal, more than 100 µM.

As for `COc1cc(/C=C2\N=C(c3ccccc3)N(C3Nc4cc5c(cc4S3)NC(N3C(=O)/C(=C/c4cc(OC)c(OC)c(OC)c4)N=C3c3ccccc3)S5)C2=O)cc(OC)c1OC` (configuration not stated), the TGI in the experiment with SK-MEL-5 melanoma, in the experiment with SR leukemia, in the experiment on UACC-257 melanoma, in the experiment on EKVX NSCLC, with ACHN renal and in the experiment on KM12 colon was more than 100 µM each time. The TGI in the experiment on HCT-116 colon, in the experiment on NCI-H460 lung, with MDA-N, with U251 CNS, in the experiment on HS 578T breast and in the experiment on UO-31 renal was more than 100 µM in each case.
